Measured values published in the NIST ThermoML archive (doi:10.1016/j.jct.2016.07.005).
± gives the expanded uncertainty stated by the source.

Test: refractive index (Na D-line) (dimensionless); xn = mol fraction of the nth substance listed
Conditions: 100 kPa, Liquid, Standard Abbe refractometry

CN1CCC[C@H]1c1cccnc1 [(-)-3-(N-methylpyrrolidino)pyridine] + CCC(C)O
refractive index
Conditions | x1 = 0.1 | x1 = 0.2036 | x1 = 0.3 | x1 = 0.4 | x1 = 0.5 | x1 = 0.6 | x1 = 0.6956 | x1 = 0.8 | x1 = 0.9 | x1 = 1
293.15 K | 1.41889 ± 0.00037 | 1.43839 ± 0.00037 | 1.4542 ± 0.00037 | 1.46843 ± 0.00037 | 1.48084 ± 0.00038 | 1.49173 ± 0.00038 | 1.50103 ± 0.00039 | 1.51029 ± 0.00039 | 1.51858 ± 0.0004 | 1.52665 ± 0.0004
298.15 K | 1.41668 ± 0.00037 | 1.43618 ± 0.00037 | 1.45199 ± 0.00037 | 1.46621 ± 0.00037 | 1.47864 ± 0.00038 | 1.48952 ± 0.00038 | 1.4988 ± 0.00039 | 1.50803 ± 0.00039 | 1.51632 ± 0.0004 | 1.52439 ± 0.0004
303.15 K | 1.41438 ± 0.00037 | 1.43393 ± 0.00037 | 1.44972 ± 0.00037 | 1.46397 ± 0.00037 | 1.47644 ± 0.00038 | 1.48735 ± 0.00038 | 1.49664 ± 0.00039 | 1.50585 ± 0.00039 | 1.5141 ± 0.0004 | 1.52214 ± 0.0004
308.15 K | 1.41211 ± 0.00037 | 1.43166 ± 0.00037 | 1.44747 ± 0.00037 | 1.46172 ± 0.00037 | 1.4742 ± 0.00038 | 1.48511 ± 0.00038 | 1.49439 ± 0.00039 | 1.50359 ± 0.00039 | 1.51184 ± 0.0004 | 1.51988 ± 0.0004
313.15 K | 1.40979 ± 0.00037 | 1.42936 ± 0.00037 | 1.44519 ± 0.00037 | 1.45945 ± 0.00037 | 1.47192 ± 0.00038 | 1.48284 ± 0.00038 | 1.49217 ± 0.00039 | 1.50145 ± 0.00039 | 1.50978 ± 0.0004 | 1.5179 ± 0.0004
318.15 K | 1.40753 ± 0.00037 | 1.4271 ± 0.00037 | 1.44297 ± 0.00037 | 1.45725 ± 0.00037 | 1.46971 ± 0.00038 | 1.48065 ± 0.00038 | 1.49001 ± 0.00039 | 1.49933 ± 0.00039 | 1.50772 ± 0.0004 | 1.51592 ± 0.0004
323.15 K | 1.40509 ± 0.00037 | 1.42476 ± 0.00037 | 1.44065 ± 0.00037 | 1.45496 ± 0.00037 | 1.46747 ± 0.00038 | 1.47843 ± 0.00038 | 1.48779 ± 0.00039 | 1.49711 ± 0.00039 | 1.5055 ± 0.0004 | 1.51373 ± 0.0004

CN1CCC[C@H]1c1cccnc1 [(-)-3-(N-methylpyrrolidino)pyridine] + CC(O)CO
refractive index
Conditions | x1 = 0.1 | x1 = 0.2009 | x1 = 0.3 | x1 = 0.4016 | x1 = 0.5 | x1 = 0.6005 | x1 = 0.7 | x1 = 0.7983 | x1 = 0.9 | x1 = 1
293.15 K | 1.45151 ± 0.00037 | 1.46746 ± 0.00037 | 1.48003 ± 0.00037 | 1.4907 ± 0.00037 | 1.49923 ± 0.00038 | 1.50631 ± 0.00038 | 1.51219 ± 0.00039 | 1.51744 ± 0.00039 | 1.52199 ± 0.0004 | 1.52665 ± 0.0004
298.15 K | 1.44969 ± 0.00037 | 1.4656 ± 0.00037 | 1.47804 ± 0.00037 | 1.48864 ± 0.00037 | 1.49711 ± 0.00038 | 1.50413 ± 0.00038 | 1.50997 ± 0.00039 | 1.5152 ± 0.00039 | 1.51971 ± 0.0004 | 1.52439 ± 0.0004
303.15 K | 1.448 ± 0.00037 | 1.46377 ± 0.00037 | 1.47612 ± 0.00037 | 1.48662 ± 0.00037 | 1.49496 ± 0.00038 | 1.50195 ± 0.00038 | 1.50774 ± 0.00039 | 1.51296 ± 0.00039 | 1.51749 ± 0.0004 | 1.52214 ± 0.0004
308.15 K | 1.44622 ± 0.00037 | 1.46193 ± 0.00037 | 1.47424 ± 0.00037 | 1.48462 ± 0.00037 | 1.49301 ± 0.00038 | 1.49987 ± 0.00038 | 1.50568 ± 0.00039 | 1.51076 ± 0.00039 | 1.5153 ± 0.0004 | 1.51988 ± 0.0004
313.15 K | 1.44441 ± 0.00037 | 1.46029 ± 0.00037 | 1.4723 ± 0.00037 | 1.48255 ± 0.00037 | 1.49092 ± 0.00038 | 1.49774 ± 0.00038 | 1.50345 ± 0.00039 | 1.5087 ± 0.00039 | 1.51312 ± 0.0004 | 1.5179 ± 0.0004
318.15 K | 1.44265 ± 0.00037 | 1.45843 ± 0.00037 | 1.47031 ± 0.00037 | 1.48043 ± 0.00037 | 1.48871 ± 0.00038 | 1.49555 ± 0.00038 | 1.50118 ± 0.00039 | 1.50651 ± 0.00039 | 1.511 ± 0.0004 | 1.51592 ± 0.0004
323.15 K | 1.44081 ± 0.00037 | 1.45653 ± 0.00037 | 1.46833 ± 0.00037 | 1.47837 ± 0.00037 | 1.48665 ± 0.00038 | 1.49341 ± 0.00038 | 1.49904 ± 0.00039 | 1.50435 ± 0.00039 | 1.50881 ± 0.0004 | 1.51373 ± 0.0004
